Results taken from ChEMBL document CHEMBL1134497, “Soluble 2-substituted aminopyrido[2,3-d]pyrimidin-7-yl ureas. Structure-activity relationships against selected tyrosine kinases and exploration of in vitro and in vivo anticancer activity” (J Med Chem, 2001).

Columns and labels:
[1] = target: Platelet-derived growth factor receptor beta (Mus musculus, UniProt P05622); test: Ability to prevent phosphorylation of isolated mouse PDGF receptor beta
[2] = target: Proto-oncogene tyrosine-protein kinase Src (Gallus gallus, UniProt P00523); test: Ability to prevent phosphorylation of avian c-Src TK
[3] = target: Fibroblast growth factor receptor 1 (Homo sapiens, UniProt P11362)
Fibroblast growth factor receptor 1, sequence (P11362 whole entry): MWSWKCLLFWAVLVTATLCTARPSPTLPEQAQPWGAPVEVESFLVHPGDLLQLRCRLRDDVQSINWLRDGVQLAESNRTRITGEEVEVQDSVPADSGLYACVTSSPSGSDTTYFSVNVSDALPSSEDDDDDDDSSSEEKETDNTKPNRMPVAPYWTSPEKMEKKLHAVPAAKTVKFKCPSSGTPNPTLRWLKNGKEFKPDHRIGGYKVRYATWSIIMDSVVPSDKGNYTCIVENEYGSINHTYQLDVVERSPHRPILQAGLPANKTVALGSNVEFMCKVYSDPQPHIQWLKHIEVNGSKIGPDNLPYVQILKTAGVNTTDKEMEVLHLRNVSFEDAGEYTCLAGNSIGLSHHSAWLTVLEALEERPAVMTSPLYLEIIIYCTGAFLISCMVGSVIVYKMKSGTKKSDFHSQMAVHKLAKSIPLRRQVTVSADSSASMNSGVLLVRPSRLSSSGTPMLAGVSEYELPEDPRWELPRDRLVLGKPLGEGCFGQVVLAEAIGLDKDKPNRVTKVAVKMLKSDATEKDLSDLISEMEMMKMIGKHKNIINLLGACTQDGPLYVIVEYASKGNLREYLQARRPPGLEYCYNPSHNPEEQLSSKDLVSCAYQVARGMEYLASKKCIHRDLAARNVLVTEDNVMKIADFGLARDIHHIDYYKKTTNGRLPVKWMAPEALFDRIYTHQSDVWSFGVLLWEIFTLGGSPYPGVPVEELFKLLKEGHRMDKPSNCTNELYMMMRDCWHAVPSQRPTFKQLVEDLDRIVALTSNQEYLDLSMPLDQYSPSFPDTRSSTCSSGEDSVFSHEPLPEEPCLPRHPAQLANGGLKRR
Description: Ability to prevent phosphorylation of human fibroblast growth factor receptor 1

[4] = tested on: C6; test: Inhibition of C-6 rat glioma cell proliferation; format: functional, cell-based
[5] = tested on: HCT-8; test: Inhibition of human colon carcinoma HCT-8 cell proliferation; format: functional, cell-based
[6] = tested on: HT-29; test: Inhibition of human colon carcinoma HT-29 cell proliferation; format: functional, cell-based
[7] = tested on: SW-620; test: Inhibition of human colon carcinoma SW-620 cell proliferation; format: functional, cell-based
[8] = target: Cyclin-dependent kinase 4 (Homo sapiens, UniProt P11802); test: Inhibition of cyclin dependent kinase 4 (CDK4)
Cyclin-dependent kinase 4, sequence (P11802 whole entry): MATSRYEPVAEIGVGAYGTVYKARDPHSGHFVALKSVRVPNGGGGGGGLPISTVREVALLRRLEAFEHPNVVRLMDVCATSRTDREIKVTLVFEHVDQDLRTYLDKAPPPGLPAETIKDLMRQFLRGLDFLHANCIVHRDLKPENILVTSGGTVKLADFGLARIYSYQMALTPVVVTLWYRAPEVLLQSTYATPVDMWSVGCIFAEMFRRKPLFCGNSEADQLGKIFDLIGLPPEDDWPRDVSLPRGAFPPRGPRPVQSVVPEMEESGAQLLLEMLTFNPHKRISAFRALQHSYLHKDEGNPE

[9] = Inhibition of MEK1/ERK (MAP Kinase kinase) in cascade assay
[10] = target: Protein kinase C (PKC); test: Inhibition of protein kinase C; format: protein assay
[11] = tested on: NIH3T3; test: Inhibition of NIH3T3/PDGF Mouse transfected fibroblasts cell line; format: functional, cell-based
[12] = Inhibition of MEK1/ERK (MAP kinase kinase) in cascade assay
[13] = target: Platelet-derived growth factor receptor (PDGFr) (Rattus norvegicus, UniProt P20786+Q05030); test: Inhibition of PDGF receptor autophosphorylation in rat aortic vascular smooth muscle cells

Platelet-derived growth factor receptor beta, sequence (P05622 whole entry): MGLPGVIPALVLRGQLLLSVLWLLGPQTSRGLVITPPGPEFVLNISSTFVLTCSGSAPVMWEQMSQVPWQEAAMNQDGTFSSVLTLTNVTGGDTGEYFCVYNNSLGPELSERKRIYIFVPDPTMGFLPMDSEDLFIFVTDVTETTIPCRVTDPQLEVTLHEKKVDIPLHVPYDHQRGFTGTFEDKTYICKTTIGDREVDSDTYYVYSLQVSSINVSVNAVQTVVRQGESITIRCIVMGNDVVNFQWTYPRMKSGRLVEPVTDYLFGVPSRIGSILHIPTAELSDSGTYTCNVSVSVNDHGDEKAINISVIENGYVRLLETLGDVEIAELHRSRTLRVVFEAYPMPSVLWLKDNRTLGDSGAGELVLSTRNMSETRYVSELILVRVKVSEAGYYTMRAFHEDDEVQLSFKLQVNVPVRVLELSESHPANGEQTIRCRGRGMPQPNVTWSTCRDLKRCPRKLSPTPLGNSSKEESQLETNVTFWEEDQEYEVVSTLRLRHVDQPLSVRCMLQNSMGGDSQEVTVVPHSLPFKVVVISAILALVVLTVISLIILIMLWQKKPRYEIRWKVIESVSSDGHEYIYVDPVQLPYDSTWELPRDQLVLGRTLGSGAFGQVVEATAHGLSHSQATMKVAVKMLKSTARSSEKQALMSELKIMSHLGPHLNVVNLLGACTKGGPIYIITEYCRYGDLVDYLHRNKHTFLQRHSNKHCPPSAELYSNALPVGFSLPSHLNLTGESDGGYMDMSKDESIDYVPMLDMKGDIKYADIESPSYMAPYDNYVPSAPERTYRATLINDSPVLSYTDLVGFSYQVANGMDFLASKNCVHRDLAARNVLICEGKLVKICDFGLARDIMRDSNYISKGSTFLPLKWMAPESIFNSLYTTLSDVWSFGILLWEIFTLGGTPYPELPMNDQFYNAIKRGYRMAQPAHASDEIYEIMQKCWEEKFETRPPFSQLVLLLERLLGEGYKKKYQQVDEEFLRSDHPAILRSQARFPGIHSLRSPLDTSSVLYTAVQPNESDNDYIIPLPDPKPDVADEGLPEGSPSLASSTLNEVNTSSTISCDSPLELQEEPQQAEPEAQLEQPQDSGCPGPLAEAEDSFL

Row | Compound | IC50 [1] | IC50 [2] | IC50 [3] | also measured
1 | CCN(CC)CCCNc1ncc2cc(-c3c(Cl)cccc3Cl)c(/N=C\N(C)C)nc2n1 | > 50000 nM | 4000 nM | 10000 nM | 
2 | CN1CCN(CCCNc2ncc3cc(-c4c(Cl)cccc4Cl)c(N=C(N)Nc4ccccc4)nc3n2)CC1 | 37000 nM | 860 nM | 2800 nM | 
3 | CC(C)NC(=Nc1nc2nc(NCCCN3CCN(C)CC3)ncc2cc1-c1c(Cl)cccc1Cl)NC(C)C |  | 850 nM | 2500 nM | 
4 | CN(C)CC(C)(C)CNc1ncc2cc(-c3c(Cl)cccc3Cl)c(NC(=O)NC(C)(C)C)nc2n1 | 3200 nM | 3500 nM | 210 nM | 
5 | CN1CCN(CCCNc2ncc3cc(-c4c(Cl)cccc4Cl)c(NS(=O)(=O)c4ccccc4)nc3n2)CC1 | 6900 nM | 22 nM | 68 nM | 
6 | CCN(CC)C(=O)Nc1nc2nc(NCCCN3CCN(C)CC3)ncc2cc1-c1c(Cl)cccc1Cl | > 50000 nM | > 50000 nM | 5500 nM | 
7 | CN1CCN(CCCNc2ncc3cc(-c4c(Cl)cccc4Cl)c(/N=C(/S)NC(C)(C)C)nc3n2)CC1 |  | 220 nM | 100 nM | 
8 | CN1CCN(CCCNc2ncc3cc(-c4c(Cl)cccc4Cl)c(NC(=O)Cc4ccccc4)nc3n2)CC1 | > 50000 nM | 3300 nM | 6800 nM | 
9 | Nc1ncc2cc(-c3c(Br)cccc3Br)c(N)nc2n1 |  | 1600 nM |  | 
10 | CCN(CC)CCCCNc1ncc2cc(-c3c(Cl)cccc3Cl)c(NC(=O)NC3CCCCC3)nc2n1 | 330 nM | 12 nM | 43 nM | 
11 | CCN(CC)CCCNc1ncc2cc(-c3c(C)cccc3C)c(N)nc2n1 | 25000 nM | 450 nM | 18000 nM | 
12 | CN(C)CCCN(C)c1ncc2cc(-c3c(Cl)cccc3Cl)c(NC(=O)NC(C)(C)C)nc2n1 | 16000 nM | 1100 nM | 2000 nM | 
13 | CN1CCN(CCCNc2ncc3cc(-c4c(Cl)cccc4Cl)c(NC(=S)Nc4ccccc4)nc3n2)CC1 | 2200 nM | 22 nM | 320 nM | 
14 | COc1cc(OC)cc(-c2cc3cnc(N)nc3nc2NC(=O)NC(C)(C)C)c1 |  |  | 48 nM | 
15 | CN1CCN(CCCNc2ncc3cc(-c4c(Cl)cccc4Cl)c(NC(=O)NC(C)(C)C)nc3n2)CC1 |  |  |  | IC50 [4]: 4000 nM; IC50 [8]: > 40000 nM; IC50 [5]: > 15200 nM; IC50 [9]: 7000 nM; IC50 [6]: 11100 nM; IC50 [11]: 1080 nM; IC50 [10]: 22000 nM; IC50 [7]: > 25000 nM
16 | COc1cc(OC)cc(-c2cc3cnc(N)nc3nc2N)c1 |  | > 50000 nM |  | 
17 | CC(C)(C)NC(=O)Nc1nc2nc(N)ncc2cc1-c1c(Br)cccc1Br | 1400 nM | 210 nM |  | 
18 | CCN(CC)CCCNc1ncc2cc(-c3c(Cl)cccc3Cl)c(N)nc2n1 |  | 750 nM |  | 
19 | Cc1cc(C)c(C)c(-c2cc3cnc(N)nc3nc2NC(=O)NC(C)(C)C)c1C | > 50000 nM | > 50000 nM |  | 
20 | Cc1cccc(C)c1-c1cc2cnc(N)nc2nc1N | 29000 nM | 430 nM | 13000 nM | 
21 | CCN(CC)CCNc1ncc2cc(-c3c(Cl)cccc3Cl)c(NC(=O)NC(C)(C)C)nc2n1 | 9000 nM | 4100 nM | 1800 nM | 
22 | CCN(CC)CCCNc1ncc2cc(-c3c(Br)cccc3Br)c(N)nc2n1 | > 50000 nM | 760 nM | 8300 nM | 
23 | CN1CCN(CCCNc2ncc3cc(-c4c(Cl)cccc4Cl)c(NC(=O)CC(C)(C)C)nc3n2)CC1 | > 50000 nM | 8400 nM | 8000 nM | 
24 | CCNC(=O)Nc1nc2nc(NCCCCN(CC)CC)ncc2cc1-c1c(Cl)cccc1Cl |  |  |  | IC50 [4]: 8800 nM; IC50 [8]: > 40000 nM; IC50 [5]: 4020 nM; IC50 [12]: > 5000 nM; IC50 [6]: 1170 nM; IC50 [11]: 1010 nM; IC50 [10]: > 50000 nM; IC50 [13]: 240 nM; IC50 [7]: 2760 nM
25 | CC/N=C(\N)Nc1nc2nc(NCCCN(CC)CC)ncc2cc1-c1c(Cl)cccc1Cl | > 50000 nM | 1400 nM | 2700 nM | 
26 | Cc1cc(C)c(C)c(-c2cc3cnc(N)nc3nc2N)c1C | > 50000 nM | > 50000 nM | > 50000 nM | 
27 | CCN(CC)CCCNc1ncc2cc(-c3c(Cl)cccc3Cl)c(NC(=O)CC(C)(C)C)nc2n1 | > 50000 nM | 19000 nM | 27000 nM | 
28 | CC(C)(C)NC(=O)Nc1nc2nc(N)ncc2cc1-c1c(Cl)cccc1Cl | 1200 nM | 220 nM |  | 
29 | CCNC(=O)Nc1nc2nc(NCCN(CC)CC)ncc2cc1-c1c(Cl)cccc1Cl | 12000 nM | 2600 nM | 1300 nM | 
30 | CCCC(=O)Nc1nc2nc(NCCCN3CCN(C)CC3)ncc2cc1-c1c(Cl)cccc1Cl | > 50000 nM | 2700 nM | 3700 nM | 

The remaining molecules from weak to strong by IC50 [2], led by results:

Row | IC50 [1] | IC50 [2] | IC50 [3] | Compound | also measured
31 | 16000 nM | 210 nM |  | Nc1ncc2cc(-c3c(Cl)cccc3Cl)c(N)nc2n1 | 
32 | 5500 nM | 190 nM |  | CN1CCN(CCCNc2ncc3cc(-c4c(Cl)cccc4Cl)c(NC(=O)Nc4ccc(C(F)(F)F)cc4)nc3n2)CC1 | 
33 | 9600 nM | 180 nM | 450 nM | CN1CCN(CCCNc2ncc3cc(-c4c(Cl)cccc4Cl)c(N)nc3n2)CC1 | 
34 | 4200 nM | 150 nM | 67 nM | CN1CCN(CCCNc2ncc3cc(-c4c(Cl)cccc4Cl)c(NC(=O)NCCNC(=O)OC(C)(C)C)nc3n2)CC1 | 
35 |  | 130 nM | 300 nM | CN1CCN(CCCNc2ncc3cc(-c4c(Cl)cccc4Cl)c(NC(=O)Nc4cccc5ccccc45)nc3n2)CC1 | 
36 | 5000 nM | 130 nM | 260 nM | CCNC(=S)Nc1nc2nc(NCCCN(CC)CC)ncc2cc1-c1c(Cl)cccc1Cl | 
37 |  | 120 nM | 420 nM | CCCCCCCCNC(=O)Nc1nc2nc(NCCCN3CCN(C)CC3)ncc2cc1-c1c(Cl)cccc1Cl | 
38 |  | 120 nM |  | CN(C)CCCNc1ncc2cc(-c3c(Cl)cccc3Cl)c(NC(=O)NC(C)(C)C)nc2n1 | 
39 | 2800 nM | 120 nM | 120 nM | CN1CCN(CCCNc2ncc3cc(-c4c(Cl)cccc4Cl)c(NC(=O)NC45C[C@H]6C[C@@H](C4)C[C@@H](C5)C6)nc3n2)CC1 | 
40 |  | 100 nM |  | CC(C)(C)NC(=O)Nc1nc2nc(NCCCN3CCOCC3)ncc2cc1-c1c(Cl)cccc1Cl | 
41 |  | 98 nM | 340 nM | CCN(CC)CCCNc1ncc2cc(-c3c(C)cccc3C)c(NC(=O)NC(C)(C)C)nc2n1 | 
42 | 1100 nM | 97 nM | 190 nM | CCN(CC)CCCNc1ncc2cc(-c3c(Br)cccc3Br)c(NC(=O)NC(C)(C)C)nc2n1 | 
43 | 1300 nM | 94 nM | 130 nM | CCNC(=O)Nc1nc2nc(NCCCN(CC)CC)ncc2cc1-c1c(Cl)cccc1Cl | 
44 | 5000 nM | 92 nM | 600 nM | CN1CCN(CCCNc2ncc3cc(-c4c(Cl)cccc4Cl)c(NC(=O)Nc4ccc(Cl)c(Cl)c4)nc3n2)CC1 | 
45 |  | 78 nM |  | CCN(CC)CCCNc1ncc2cc(-c3c(Cl)cccc3Cl)c(NC(=O)NC(C)C)nc2n1 | 
46 |  | 73 nM |  | CCN(CC)CCCNc1ncc2cc(-c3c(Cl)cccc3Cl)c(NC(=O)NC(C)(C)C)nc2n1 | 

Row | IC50 [1] | IC50 [2] | IC50 [3] | Compound | also measured
47 | 2400 nM | 61 nM | 140 nM | CN1CCN(CCCNc2ncc3cc(-c4c(Cl)cccc4Cl)c(NC(N)=O)nc3n2)CC1 | 
48 | 1800 nM | 40 nM | 120 nM | CN1CCN(CCCNc2ncc3cc(-c4c(Cl)cccc4Cl)c(NC(=O)Nc4ccc(Cl)cc4)nc3n2)CC1 | 
49 | 840 nM | 36 nM | 110 nM | Cc1ccc(NC(=O)Nc2nc3nc(NCCCN4CCN(C)CC4)ncc3cc2-c2c(Cl)cccc2Cl)cc1 | 
50 | 1500 nM | 33 nM | 110 nM | CN1CCN(CCCNc2ncc3cc(-c4c(Cl)cccc4Cl)c(NC(=O)Nc4ccc(Br)cc4)nc3n2)CC1 | 
51 |  | 33 nM |  | COc1ccc(NC(=O)Nc2nc3nc(NCCCN4CCN(C)CC4)ncc3cc2-c2c(Cl)cccc2Cl)cc1 | 
52 | 910 nM | 29 nM |  | COc1cccc(NC(=O)Nc2nc3nc(NCCCN4CCN(C)CC4)ncc3cc2-c2c(Cl)cccc2Cl)c1 | 
53 |  | 24 nM |  | CCNC(=O)Nc1nc2nc(NCCCN3CCN(C)CC3)ncc2cc1-c1c(Cl)cccc1Cl | IC50 [4]: 6700 nM; IC50 [5]: 9300 nM; IC50 [6]: 900 nM; IC50 [7]: 2500 nM
54 | 1100 nM | 22 nM | 130 nM | CCN(CC)CCCCNc1ncc2cc(-c3c(Cl)cccc3Cl)c(NC(=S)NCCCN3CCOCC3)nc2n1 | 
55 | 760 nM | 22 nM | 35 nM | C=CCNC(=O)Nc1nc2nc(NCCCN3CCN(C)CC3)ncc2cc1-c1c(Cl)cccc1Cl | 
56 | 2400 nM | 20 nM | 75 nM | CN(C)CCNC(=O)Nc1nc2nc(NCCCN3CCN(C)CC3)ncc2cc1-c1c(Cl)cccc1Cl | 
57 | 550 nM | 19 nM | 34 nM | CC(C)NC(=O)Nc1nc2nc(NCCCN3CCN(C)CC3)ncc2cc1-c1c(Cl)cccc1Cl | 
58 | 660 nM | 16 nM | 67 nM | COc1ccccc1NC(=O)Nc1nc2nc(NCCCN3CCN(C)CC3)ncc2cc1-c1c(Cl)cccc1Cl | 
59 | 730 nM | 16 nM |  | CC1CCCCN1CCCNc1ncc2cc(-c3c(Cl)cccc3Cl)c(NC(=O)NC(C)(C)C)nc2n1 (stereo not given) | 
60 | 280 nM | 10 nM |  | CN1CCN(CCCCNc2ncc3cc(-c4c(Cl)cccc4Cl)c(NC(=O)NC(C)(C)C)nc3n2)CC1 | 
61 |  | 7.4 nM |  | CCN(CC)CCCCNc1ncc2cc(-c3c(Cl)cccc3Cl)c(NC(=O)NC(C)(C)C)nc2n1 | IC50 [4]: 5800 nM; IC50 [8]: > 40000 nM; IC50 [5]: 16300 nM; IC50 [9]: 2800 nM; IC50 [6]: 900 nM; IC50 [10]: 23000 nM; IC50 [7]: > 25000 nM
